Experimental data as given in patent US20240174672A1, “Spirocycle Containing Pyridone Compounds” (Protego Biopharma, Inc., priority 2022, published 2024).

system: immunoglobulin light chain protein WIL-FL T46L; assay: Differential Scanning Fluorimetry (thermal shift) assay; type: binding; conditions: recombinant amyloidogenic full length light chain WIL-FL T46L; protein and compound incubated at RT for 30 min before dye
Experimental: Differential Scanning Fluorimetry Assay
The stabilization effects the compounds have on the immunoglobulin light chain protein was quantitively measured using a thermal shift assay. Recombinant amyloidogenic full length light chain protein WIL-FL T46L was produced in E. coli, purified, and used in the assay. The Thermal Shift Protein Stability Kit from Biotium was used and the assay was done in 96-well Plates following the manufacturer's instructions. The protein and compounds were incubated at RT for 30 min before adding the dye and subjected to the thermal shift assay. The thermal stability (Tm) of each sample was then determined using standard curve fitting methods and compared to vehicle. Data are expressed as temperature shift: [Tm]compound−[Tm]vehicle.
The compounds provided herein induce shifts in the ranges below: • 0-0.5° C.═* • >0.5-1° C.═** • >1-1.5° C.═*** • >1.5-2.5° C.═**** • >2.5° C.═*****

SMILES | DSF temperature shift: [Tm]compound−[Tm]vehicle
CC[C@]1(c2ccccc2)CCN(c2cc(C)n(CCN3CC4(CCN(c5ccc(C(=O)O)nn5)CC4)NC3=O)c(=O)c2)C1 [Compound 17] | ***** (>2.5° C.═*****)
Cc1cc(N2CC[C@@](C)(c3ccccc3)C2)cc(=O)n1CCN1CC2(CCN(c3ncnc4[nH]ncc34)CC2)NC1=O [Compound 9] | **** (>1.5-2.5° C.═****)
Cc1cc(N2CCC(C)(c3ccccc3)C2)cc(=O)n1CCN1C(=O)NC2(CCN(c3ncccn3)C2)C1=O (stereo not shown) [Compound 33] | *** (>1-1.5° C.═***)
Cc1cc(N2CCC(C)(c3ccccc3)C2)cc(=O)n1CCN1C(=O)NC2(CCN(c3ncccn3)CC2)C1=O (stereo not shown) [Compound 30] | **** (>1.5-2.5° C.═****)
Cc1cc(N2CC[C@](C)(c3ccccc3)C2)cc(=O)n1CCN1CC2(CCN(c3nccn4ccnc34)CC2)NC1=O [Compound 12] | *** (>1-1.5° C.═***)
CC[C@]1(c2ccccc2)CCN(c2cc(C)n(CCN3CC4(CCN(c5nccn6cnnc56)CC4)NC3=O)c(=O)c2)C1 [Compound 22] | *** (>1-1.5° C.═***)
CCOC(=O)c1ccc(N2CCC3(CC2)CN(CCn2c(C)cc(N4CC[C@](CC)(c5ccccc5)C4)cc2=O)C(=O)N3)cn1 [Compound 14] | ***** (>2.5° C.═*****)
CC[C@@]1(c2ccccc2)CCN(c2cc(C)n(CCN3CC4(CCN(c5ccc6nncn6c5)CC4)NC3=O)c(=O)c2)C1 [Compound 16] | **** (>1.5-2.5° C.═****)
Cc1cc(N2CCC(C)(c3ccccc3)C2)cc(=O)n1CCCN1C(=O)NC2(CCN(c3ncccn3)CC2)C1=O (stereo not shown) [Compound 28, 3-(3-(6-methyl-4-(3-methyl-3-phenylpyrrolidin-1-yl)-2-oxopyridin-1(2H)-yl)propyl)-8-(pyrimidin-2-yl)-1,3,8-triazaspiro[4.5]decane-2,4-dione] | **** (>1.5-2.5° C.═****)
CC[C@]1(c2ccccc2)CCN(c2cc(C)n(CCN3CC4(CCN(c5cccc(C(=O)OC)n5)CC4)NC3=O)c(=O)c2)C1 [Compound 21] | **** (>1.5-2.5° C.═****)
Cc1cc(N2CC[C@@](C)(c3ccccc3)C2)cc(=O)n1CCCN1CC2(CCN(c3nccn4ccnc34)CC2)NC1=O [Compound 13] | ** (>0.5-1° C.═**)
Cc1cc(N2CCC(C)(c3ccccc3)C2)cc(=O)n1CCCN1C(=O)NC2(CCN(c3nccn4ccnc34)CC2)C1=O (stereo not shown) [Compound 29] | **** (>1.5-2.5° C.═****)
CC[C@]1(c2ccccc2)CCN(c2cc(C)n(CCN3CC4(CCN(c5cccc(C(=O)O)n5)CC4)NC3=O)c(=O)c2)C1 [Compound 20] | **** (>1.5-2.5° C.═****)
CC[C@@]1(c2ccccc2)CCN(c2cc(C)n(CCN3CC4(CCN(c5cn6ccnc6cn5)CC4)NC3=O)c(=O)c2)C1 [Compound 15] | **** (>1.5-2.5° C.═****)
Cc1cc(N2CC[C@@](C)(c3ccccc3)C2)cc(=O)n1CCN1C(=O)NC2(CCN(c3nccn4cncc34)CC2)C1=O [Compound 31] | *** (>1-1.5° C.═***)
Cc1nc(N2CC[C@](C)(c3ccccc3)C2)cc(=O)n1CCN1CC2(CCN(c3nccn4ccnc34)CC2)NC1=O [Compound 24] | *** (>1-1.5° C.═***)
CC[C@@]1(c2ccccc2)CCN(c2cc(C)n(CCN3CC4(CCN(c5nccn6cnnc56)CC4)NC3=O)c(=O)c2)C1 [Compound 1, (S)-8-([1,2,4]triazolo[4,3-a]pyrazin-8-yl)-3-(2-(4-(3-ethyl-3-phenylpyrrolidin-1-yl)-6-methyl-2-oxopyridin-1(2H)-yl)ethyl)-1,3,8-triazaspiro[4.5]decan-2-one] | ***** (>2.5° C.═*****)
Cc1cc(N2CC[C@](C)(c3ccccc3)C2)cc(=O)n1CCCN1C(=O)NC2(CCN(c3nccn4ccnc34)CC2)C1=O [Compound 35] | *** (>1-1.5° C.═***)
Cc1cc(N2CCC(C)(c3ccccc3)C2)cc(=O)n1CCN1CC2(CCN(c3ncccn3)C2)NC1=O (stereo not shown) [Compound 11, 3-(2-(6-methyl-4-(3-methyl-3-phenylpyrrolidin-1-yl)-2-oxopyridin-1(2H)-yl)ethyl)-7-(pyrimidin-2-yl)-1,3,7-triazaspiro[4.4]nonan-2-one] | *** (>1-1.5° C.═***)
CC[C@]1(c2ccccc2)CCN(c2cc(C)n(CCN3CC4(CCN(c5ccc(C(=O)OC)nn5)CC4)NC3=O)c(=O)c2)C1 [Compound 18] | ***** (>2.5° C.═*****)
Cc1cc(O[C@H](C)c2ccccc2)cc(=O)n1CCN1C(=O)NC2(CCN(c3nccn4ccnc34)CC2)C1=O [Compound 32, (R)-8-(imidazo[1,2-a]pyrazin-8-yl)-3-(2-(6-methyl-2-oxo-4-(1-phenylethoxy)pyridin-1(2H)-yl)ethyl)-1,3,8-triazaspiro[4.5]decane-2,4-dione] | ** (>0.5-1° C.═**)
Cc1cc(N2CCC(C)(c3ccccc3)C2=O)cc(=O)n1CCN1C(=O)NC2(CCN(c3ncccn3)C2)C1=O (stereo not shown) [Compound 34, 3-(2-(6-methyl-4-(3-methyl-2-oxo-3-phenylpyrrolidin-1-yl)-2-oxopyridin-1(2H)-yl)ethyl)-7-(pyrimidin-2-yl)-1,3,7-triazaspiro[4.4]nonane-2,4-dione] | * (0-0.5° C.═*)
Cc1cc(N2CC[C@@](C)(c3ccccc3)C2)cc(=O)n1CCCN1CC2(CCN(c3nccn4ccnc34)CC2)NC1=O [Compound 10] | **** (>1.5-2.5° C.═****)
CC[C@]1(c2ccccc2)CCN(c2cc(C)n(CCN3CC4(CCN(c5ccc(C(=O)O)nc5)CC4)NC3=O)c(=O)c2)C1 [Compound 19] | ** (>0.5-1° C.═**)
Cc1cc(N2CC[C@@](C)(c3ccccc3)C2)cc(=O)n1CCCN1C(=O)NC2(CCN(c3nccn4ccnc34)CC2)C1=O [Compound 27] | **** (>1.5-2.5° C.═****)
